# The source made the active and inactive calls. The rule behind the calls is not given here.
# Legend:
# [1] = target: T1, C-X-C chemokine receptor type 1 (Homo sapiens) (UniProt P25024); experiment: Displacement of [125I]hCXCL8 from human CXCR1 receptor expressed in BaF3 cells at >10000 nM; type: cell-based
# T1 sequence (whole entry): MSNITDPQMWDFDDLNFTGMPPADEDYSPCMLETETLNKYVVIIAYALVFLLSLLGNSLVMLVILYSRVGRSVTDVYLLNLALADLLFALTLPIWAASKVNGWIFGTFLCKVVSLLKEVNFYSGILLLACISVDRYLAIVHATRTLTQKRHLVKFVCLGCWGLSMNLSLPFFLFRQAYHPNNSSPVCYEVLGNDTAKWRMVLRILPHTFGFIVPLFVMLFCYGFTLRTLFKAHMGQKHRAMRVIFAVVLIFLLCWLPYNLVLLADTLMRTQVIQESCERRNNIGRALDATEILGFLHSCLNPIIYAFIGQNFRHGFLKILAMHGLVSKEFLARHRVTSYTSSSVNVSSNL
# [2] = target: T2, C-X-C chemokine receptor type 2 (Homo sapiens, UniProt P25025); experiment: Displacement of [125I]hCXCL8 from human CXCR2 receptor expressed in BaF3 cells; type: cell-based
# T2 sequence (P25025 whole entry): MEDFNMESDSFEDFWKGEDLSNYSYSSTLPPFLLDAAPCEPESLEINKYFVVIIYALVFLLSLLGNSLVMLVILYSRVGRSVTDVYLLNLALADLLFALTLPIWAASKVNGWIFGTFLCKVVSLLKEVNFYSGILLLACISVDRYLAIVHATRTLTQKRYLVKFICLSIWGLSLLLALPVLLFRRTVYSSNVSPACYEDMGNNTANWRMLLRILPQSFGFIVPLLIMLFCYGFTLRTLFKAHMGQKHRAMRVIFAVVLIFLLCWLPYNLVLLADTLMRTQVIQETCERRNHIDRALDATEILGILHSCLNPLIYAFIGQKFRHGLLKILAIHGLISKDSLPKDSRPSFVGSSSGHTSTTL
# [3] = AUC (0-6h) in rat at 10 mg/kg, po; type: ADME, organism-based; set-up: time < 6 hr, dose 10 mg/kg, route oral; conditions: plasma
# [4] = target: T3, C-X-C chemokine receptor type 1 (Homo sapiens, UniProt P25024); experiment: Displacement of [125I]hCXCL8 from human CXCR1 receptor expressed in BaF3 cells; type: cell-based
# T3 sequence (P25024 whole entry): T1 sequence (whole entry)
# [5] = target: T4, C-X-C chemokine receptor type 3 (Homo sapiens) (UniProt P49682); experiment: Inhibition of CXCR3 receptor at 2 to 20 uM
# T4 sequence (whole entry): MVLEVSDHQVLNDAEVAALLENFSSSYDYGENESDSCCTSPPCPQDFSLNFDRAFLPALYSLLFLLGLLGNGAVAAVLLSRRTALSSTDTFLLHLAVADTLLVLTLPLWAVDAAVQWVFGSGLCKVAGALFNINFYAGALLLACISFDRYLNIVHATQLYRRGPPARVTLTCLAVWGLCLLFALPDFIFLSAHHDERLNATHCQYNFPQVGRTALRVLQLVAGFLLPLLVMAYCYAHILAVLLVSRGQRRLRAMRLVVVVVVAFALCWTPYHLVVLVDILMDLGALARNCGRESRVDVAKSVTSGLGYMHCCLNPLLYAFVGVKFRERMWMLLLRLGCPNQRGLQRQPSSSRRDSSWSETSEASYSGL
# [6] = target: C-C chemokine receptor type 5 (Homo sapiens) (UniProt P51681); experiment: Inhibition of CCR5 receptor at 2 to 20 uM
# Sequence of C-C chemokine receptor type 5 (Homo sapiens) (P51681 whole entry, looked up): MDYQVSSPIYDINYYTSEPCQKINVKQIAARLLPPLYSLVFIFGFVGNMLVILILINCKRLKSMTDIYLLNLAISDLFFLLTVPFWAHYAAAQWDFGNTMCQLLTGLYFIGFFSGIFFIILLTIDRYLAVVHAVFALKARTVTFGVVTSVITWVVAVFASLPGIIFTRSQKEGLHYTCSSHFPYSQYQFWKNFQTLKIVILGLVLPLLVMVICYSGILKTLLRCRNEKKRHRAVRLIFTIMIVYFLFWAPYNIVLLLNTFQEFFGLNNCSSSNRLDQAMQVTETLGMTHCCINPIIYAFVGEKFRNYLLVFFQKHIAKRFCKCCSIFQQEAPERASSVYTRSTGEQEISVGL
# [7] = target: T5, fMet-Leu-Phe receptor (Homo sapiens) (UniProt P21462); experiment: Inhibition of fMLP-induced human neutrophil chemotaxis; type: functional
# T5 sequence (whole entry): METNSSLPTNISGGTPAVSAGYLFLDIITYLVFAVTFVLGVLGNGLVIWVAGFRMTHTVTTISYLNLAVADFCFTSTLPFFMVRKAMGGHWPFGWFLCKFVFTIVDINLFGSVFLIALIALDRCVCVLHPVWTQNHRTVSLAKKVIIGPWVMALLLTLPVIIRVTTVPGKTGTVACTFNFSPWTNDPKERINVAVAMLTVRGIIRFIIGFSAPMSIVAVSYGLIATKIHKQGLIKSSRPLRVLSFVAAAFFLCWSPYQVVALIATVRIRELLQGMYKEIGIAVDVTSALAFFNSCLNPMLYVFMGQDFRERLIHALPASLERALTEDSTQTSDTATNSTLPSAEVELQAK
# [8] = target: T6, C5a anaphylatoxin chemotactic receptor 1 (Homo sapiens) (UniProt P21730); experiment: Inhibition of C5a-induced human neutrophil chemotaxis; type: functional
# T6 sequence (whole entry): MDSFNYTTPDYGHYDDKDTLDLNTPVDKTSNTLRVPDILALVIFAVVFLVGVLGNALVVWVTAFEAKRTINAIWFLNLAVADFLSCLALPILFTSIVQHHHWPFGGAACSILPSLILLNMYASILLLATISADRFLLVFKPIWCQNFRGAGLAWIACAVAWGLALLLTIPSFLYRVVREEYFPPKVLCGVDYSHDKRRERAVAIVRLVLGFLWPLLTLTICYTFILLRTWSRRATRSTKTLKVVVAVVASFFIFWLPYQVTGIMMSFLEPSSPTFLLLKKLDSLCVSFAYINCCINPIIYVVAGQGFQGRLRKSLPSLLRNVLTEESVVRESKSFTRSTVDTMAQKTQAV
# [9] = target: T7, Interleukin-8 receptors, CXCR1/CXCR2 (Homo sapiens, UniProt P25025+P25024); experiment: Inhibition of CXCL8-induced human neutrophil chemotaxis; type: functional
# T7 sequence (P25025 whole entry): T2 sequence (P25025 whole entry)
# T7 sequence (P25024 whole entry): T1 sequence (whole entry)
# [10] = target: Interleukin-8 receptors, CXCR1/CXCR2 (Homo sapiens) (UniProt P25025+P25024); experiment: Selectivity for CXCR2 over CXCR1; type: protein assay
IC50 [2],AUC(0-t) at 6 h [3],IC50 [4],Compound,also measured
0.236 µM,,,CN(C)C(=O)c1cccc(Nc2c(NCc3ccccc3)c(=O)c2=O)c1O,Activity [1]: inactive
0.0038 µM,1.4 µM·h,0.026 µM,CC[C@@H](Nc1c(Nc2cccc(C(=O)N(C)C)c2O)c(=O)c1=O)c1ccco1,
0.0053 µM,14.1 µM·h,0.235 µM,CC[C@@H](Nc1c(Nc2cccc(C(=O)N(C)C)c2O)c(=O)c1=O)c1ccc(C)s1,
0.005 µM,31.7 µM·h,0.145 µM,CC[C@@H](Nc1c(Nc2cccc(C(=O)N(C)C)c2O)c(=O)c1=O)c1ccc2c(c1)OCO2,
,6.4 µM·h,0.91 µM,CCC(CC)Nc1c(Nc2cccc(C(=O)N(C)C)c2O)c(=O)c1=O,
0.006 µM,2.5 µM·h,0.081 µM,CC[C@@H](Nc1c(Nc2cccc(C(=O)N(C)C)c2O)c(=O)c1=O)c1cccs1,
,49 µM·h,,CC[C@@H](Nc1c(Nc2cccc(C(=O)N(C)C)c2O)c(=O)c1=O)c1ccc(C)o1 [NAVARIXIN ANHYDROUS],inhibition [5]: < 15%; inhibition [6]: < 15%; Activity [7]: inactive; Activity [8]: inactive
,,,C[C@H](Nc1c(Nc2cccc(C(=O)N(C)C)c2O)c(=O)c1=O)c1ccccc1,Activity [1]: inactive
0.234 µM,1 µM·h,,CC[C@H](Nc1c(Nc2cccc(C(=O)N(C)C)c2O)c(=O)c1=O)c1ccccc1,Activity [1]: inactive
0.0068 µM,17.4 µM·h,0.254 µM,CC[C@@H](Nc1c(Nc2cccc(C(=O)N(C)C)c2O)c(=O)c1=O)c1ccccc1,IC50 [9]: 0.398 µM
,,3.06 µM,C[C@@H](Nc1c(Nc2cccc(C(=O)N(C)C)c2O)c(=O)c1=O)c1ccccc1,
0.0054 µM,34 µM·h,0.775 µM,Cc1ccc([C@@H](C)Nc2c(Nc3cccc(C(=O)N(C)C)c3O)c(=O)c2=O)o1,Ratio IC50 [10]: > 100; IC50 [9]: 0.251 µM
0.0049 µM,18.3 µM·h,0.197 µM,CC[C@@H](Nc1c(Nc2cccc(C(=O)N(C)C)c2O)c(=O)c1=O)c1cccc(F)c1,

Compound,IC50 [2],AUC(0-t) at 6 h [3],IC50 [4],also measured
Cc1ccc([C@H](Nc2c(Nc3cccc(C(=O)N(C)C)c3O)c(=O)c2=O)C2CC2)o1,0.0036 µM,1.4 µM·h,0.055 µM,
Cc1ccc([C@H](Nc2c(Nc3cccc(C(=O)N(C)C)c3O)c(=O)c2=O)C(C)C)o1,0.0062 µM,3.2 µM·h,0.034 µM,
Cc1ccc([C@H](Nc2c(Nc3cccc(C(=O)N(C)C)c3O)c(=O)c2=O)C(C)(C)C)o1,0.0038 µM,2.6 µM·h,0.011 µM,

# From ChEMBL document CHEMBL1138214 (J Med Chem, 2006)
